Experimental data: PMC4503722, “Novel Phenotypic Outcomes Identified for a Public Collection of Approved Drugs from a Publicly Accessible Panel of Assays” (PLoS ONE, 2015)

Columns and labels:
hJAK2 = molecular target: T1, hJAK2 (Homo sapiens, UniProt O60674); experiment: Cerep LANCE kinase assay hJAK2 (S1 assay 33); type: biochemical
T1 construct: purchased Cerep (LANCE kinase assay platform, contract assay)

[1] = test system: nuclear β-catenin in C2C12 cells; experiment: cells; type: cell-based; settings: concentration response
RKO = experiment: cells; type: cell-based; settings: basal
hp70S6K1 (RPS6KB1) = molecular target: T2, hp70S6K1 (RPS6KB1) (Homo sapiens, UniProt P23443); experiment: Cerep LANCE kinase assay hp70S6K1 (S1 assay 31); type: biochemical
T2 construct: purchased Cerep (LANCE kinase assay platform, contract assay)

Colo320 = experiment: cells; type: cell-based; settings: basal
[2] = test system: alkaline phosphatase (ALP) activity in C2C12 cells; type: cell-based; settings: concentration response
hFLT3 = molecular target: T3, hFLT3 (Homo sapiens, UniProt P36888); experiment: Cerep LANCE kinase assay hFLT3 (S1 assay 35); type: biochemical
T3 construct: purchased Cerep (LANCE kinase assay platform, contract assay)

HCT116 = experiment: cells; type: cell-based; settings: basal
HT-29 = experiment: cells; type: cell-based; settings: basal
SNU-C1 = experiment: cells; type: cell-based; settings: basal
[3] = test system: ECFC/ADSC co-culture cell nuclei number
HeLa cells = experiment: cells; type: cell-based
SW480 = experiment: cells; type: cell-based; settings: basal
hKDR = molecular target: T4, hKDR (Homo sapiens, UniProt P35968); experiment: Cerep LANCE kinase assay hKDR (S1 assay 32); type: biochemical
T4 construct: purchased Cerep (LANCE kinase assay platform, contract assay)

[4] = test system: HCT116 cells treated with a GSK3β inhibitor; experiment: cells; type: cell-based
hGSK3b = molecular target: T5, hGSK3b (Homo sapiens, UniProt P49841); experiment: Cerep LANCE kinase assay hGSK3b (S1 assay 34); type: biochemical
T5 construct: purchased Cerep (LANCE kinase assay platform, contract assay)

[5] = test system: endothelial tube formation in co-cultures of ECFCs and ADSCs treated with VEGF; experiment: cells; type: cell-based, human
DLD-1 = experiment: cells; type: cell-based; settings: basal

T4 sequence (P35968 20-1356): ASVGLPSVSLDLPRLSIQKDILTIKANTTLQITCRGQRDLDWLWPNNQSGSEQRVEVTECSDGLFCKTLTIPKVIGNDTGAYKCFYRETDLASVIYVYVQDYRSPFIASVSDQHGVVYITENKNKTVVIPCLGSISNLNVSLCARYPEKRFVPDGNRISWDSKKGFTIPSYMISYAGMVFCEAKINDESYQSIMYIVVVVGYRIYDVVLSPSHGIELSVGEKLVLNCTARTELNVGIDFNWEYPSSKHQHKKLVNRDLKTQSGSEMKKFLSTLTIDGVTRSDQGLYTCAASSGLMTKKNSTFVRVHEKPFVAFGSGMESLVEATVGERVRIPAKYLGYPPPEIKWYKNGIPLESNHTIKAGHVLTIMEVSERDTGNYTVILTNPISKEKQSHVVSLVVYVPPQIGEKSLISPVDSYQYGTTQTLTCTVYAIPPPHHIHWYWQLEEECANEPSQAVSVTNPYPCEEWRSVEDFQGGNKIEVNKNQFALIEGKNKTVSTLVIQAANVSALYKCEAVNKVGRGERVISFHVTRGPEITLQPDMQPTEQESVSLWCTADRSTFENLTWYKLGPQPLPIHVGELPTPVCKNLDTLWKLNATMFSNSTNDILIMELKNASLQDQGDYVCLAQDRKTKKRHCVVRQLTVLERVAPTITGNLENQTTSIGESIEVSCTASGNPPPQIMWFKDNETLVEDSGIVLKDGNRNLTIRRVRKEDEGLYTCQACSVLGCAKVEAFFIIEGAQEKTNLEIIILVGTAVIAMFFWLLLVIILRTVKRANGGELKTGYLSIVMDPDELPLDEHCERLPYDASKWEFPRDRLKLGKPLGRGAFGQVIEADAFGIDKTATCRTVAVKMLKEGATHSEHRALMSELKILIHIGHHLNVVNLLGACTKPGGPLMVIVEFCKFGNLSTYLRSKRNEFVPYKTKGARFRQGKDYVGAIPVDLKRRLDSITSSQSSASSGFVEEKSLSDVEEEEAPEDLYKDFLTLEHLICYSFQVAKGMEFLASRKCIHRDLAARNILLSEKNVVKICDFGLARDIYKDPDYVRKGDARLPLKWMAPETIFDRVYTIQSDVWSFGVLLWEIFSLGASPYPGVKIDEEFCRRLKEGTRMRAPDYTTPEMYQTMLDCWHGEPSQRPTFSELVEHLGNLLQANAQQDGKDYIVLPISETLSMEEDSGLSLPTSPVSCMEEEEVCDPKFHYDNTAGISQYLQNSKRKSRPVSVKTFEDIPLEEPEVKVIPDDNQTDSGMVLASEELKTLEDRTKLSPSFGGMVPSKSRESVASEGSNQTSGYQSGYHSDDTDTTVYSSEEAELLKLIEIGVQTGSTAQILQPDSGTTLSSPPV
T5 sequence (P49841 whole entry): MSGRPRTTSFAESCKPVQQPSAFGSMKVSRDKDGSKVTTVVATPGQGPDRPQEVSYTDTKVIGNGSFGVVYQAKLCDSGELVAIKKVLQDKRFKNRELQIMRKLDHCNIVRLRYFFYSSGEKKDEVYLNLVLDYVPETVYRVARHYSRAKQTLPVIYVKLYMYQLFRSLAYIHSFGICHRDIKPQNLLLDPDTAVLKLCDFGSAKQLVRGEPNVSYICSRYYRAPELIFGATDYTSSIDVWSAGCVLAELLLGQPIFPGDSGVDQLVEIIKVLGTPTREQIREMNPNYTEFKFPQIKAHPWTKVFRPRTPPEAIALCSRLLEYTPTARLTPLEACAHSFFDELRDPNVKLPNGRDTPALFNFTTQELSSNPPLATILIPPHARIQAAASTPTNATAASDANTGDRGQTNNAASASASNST
T1 sequence (O60674 whole entry): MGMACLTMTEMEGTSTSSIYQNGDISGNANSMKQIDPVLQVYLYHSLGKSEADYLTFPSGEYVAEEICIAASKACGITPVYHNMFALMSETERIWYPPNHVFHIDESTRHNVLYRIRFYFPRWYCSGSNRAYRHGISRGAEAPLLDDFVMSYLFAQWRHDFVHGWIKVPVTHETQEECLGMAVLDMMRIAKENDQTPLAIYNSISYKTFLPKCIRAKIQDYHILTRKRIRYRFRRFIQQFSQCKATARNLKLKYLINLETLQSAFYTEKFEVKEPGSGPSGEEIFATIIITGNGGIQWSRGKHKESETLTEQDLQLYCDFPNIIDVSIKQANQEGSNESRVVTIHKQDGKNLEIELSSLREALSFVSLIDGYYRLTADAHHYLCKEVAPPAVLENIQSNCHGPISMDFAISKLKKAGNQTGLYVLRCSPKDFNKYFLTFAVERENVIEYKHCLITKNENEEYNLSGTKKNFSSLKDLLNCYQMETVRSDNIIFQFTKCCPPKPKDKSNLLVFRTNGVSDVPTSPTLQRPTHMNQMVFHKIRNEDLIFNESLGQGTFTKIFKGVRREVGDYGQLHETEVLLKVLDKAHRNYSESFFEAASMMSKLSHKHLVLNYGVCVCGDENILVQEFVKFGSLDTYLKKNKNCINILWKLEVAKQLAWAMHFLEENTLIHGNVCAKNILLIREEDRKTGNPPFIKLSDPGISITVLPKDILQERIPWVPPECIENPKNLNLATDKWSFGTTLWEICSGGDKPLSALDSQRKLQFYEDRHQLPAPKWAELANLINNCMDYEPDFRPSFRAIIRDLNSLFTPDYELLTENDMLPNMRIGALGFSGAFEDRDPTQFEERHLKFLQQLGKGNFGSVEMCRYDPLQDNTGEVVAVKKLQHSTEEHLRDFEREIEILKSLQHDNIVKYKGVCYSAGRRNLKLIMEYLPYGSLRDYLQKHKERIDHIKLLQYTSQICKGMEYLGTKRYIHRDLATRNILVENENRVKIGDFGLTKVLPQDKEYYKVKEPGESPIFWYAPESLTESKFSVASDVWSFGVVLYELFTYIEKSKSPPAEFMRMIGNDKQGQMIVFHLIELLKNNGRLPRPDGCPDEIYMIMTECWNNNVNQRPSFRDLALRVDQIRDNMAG
T2 sequence (P23443 whole entry): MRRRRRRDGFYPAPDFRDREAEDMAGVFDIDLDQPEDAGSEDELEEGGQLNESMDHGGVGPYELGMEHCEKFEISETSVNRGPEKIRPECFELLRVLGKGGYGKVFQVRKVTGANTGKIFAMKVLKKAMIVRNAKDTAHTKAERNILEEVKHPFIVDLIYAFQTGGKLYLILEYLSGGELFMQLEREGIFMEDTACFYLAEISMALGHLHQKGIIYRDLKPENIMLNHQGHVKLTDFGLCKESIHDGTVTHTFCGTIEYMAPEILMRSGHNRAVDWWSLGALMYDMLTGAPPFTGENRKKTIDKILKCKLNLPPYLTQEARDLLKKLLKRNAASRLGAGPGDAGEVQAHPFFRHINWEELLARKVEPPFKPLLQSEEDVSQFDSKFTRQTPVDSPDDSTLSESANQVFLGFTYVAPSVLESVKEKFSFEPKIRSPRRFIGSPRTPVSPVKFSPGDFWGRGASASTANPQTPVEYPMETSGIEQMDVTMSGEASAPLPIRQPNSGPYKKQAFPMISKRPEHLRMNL
T3 sequence (P36888 27-993): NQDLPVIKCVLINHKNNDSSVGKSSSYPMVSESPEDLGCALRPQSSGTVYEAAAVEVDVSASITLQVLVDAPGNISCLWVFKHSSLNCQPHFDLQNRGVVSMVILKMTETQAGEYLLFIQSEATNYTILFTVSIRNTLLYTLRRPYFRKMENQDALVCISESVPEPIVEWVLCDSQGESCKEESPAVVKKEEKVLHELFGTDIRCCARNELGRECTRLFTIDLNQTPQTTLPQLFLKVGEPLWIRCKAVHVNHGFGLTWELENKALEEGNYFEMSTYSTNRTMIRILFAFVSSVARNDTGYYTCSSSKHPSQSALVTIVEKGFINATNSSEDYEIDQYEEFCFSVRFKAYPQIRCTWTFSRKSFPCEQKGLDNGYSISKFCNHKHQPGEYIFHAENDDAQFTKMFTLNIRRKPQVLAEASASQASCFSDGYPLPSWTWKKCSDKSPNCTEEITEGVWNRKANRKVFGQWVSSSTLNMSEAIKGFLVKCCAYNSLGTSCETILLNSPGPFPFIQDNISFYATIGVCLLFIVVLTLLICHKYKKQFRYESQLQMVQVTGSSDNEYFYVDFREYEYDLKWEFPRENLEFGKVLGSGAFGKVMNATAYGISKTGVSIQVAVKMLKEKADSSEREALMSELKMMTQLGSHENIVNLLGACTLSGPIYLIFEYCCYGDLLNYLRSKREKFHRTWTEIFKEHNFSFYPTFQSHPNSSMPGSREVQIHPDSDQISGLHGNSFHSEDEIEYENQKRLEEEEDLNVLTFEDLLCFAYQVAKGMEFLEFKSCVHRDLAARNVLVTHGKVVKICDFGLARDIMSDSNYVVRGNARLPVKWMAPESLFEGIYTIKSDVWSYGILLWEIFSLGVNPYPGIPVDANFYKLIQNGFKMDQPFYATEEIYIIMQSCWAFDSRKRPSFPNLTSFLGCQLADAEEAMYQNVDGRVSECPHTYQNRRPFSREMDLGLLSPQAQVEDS

Compound: O=C1c2c(O)ccc(O)c2C(=O)c2c(NCCNCCO)ccc(NCCNCCO)c21 [NCGC00015693-09]
- hJAK2 LANCE IC50/EC50 (hJAK2; assay number 33): > 20 µM
- WntCondMedia_bCatenin C2C12 IC50/EC50 ([1]; assay number 5): 0.0303 µM
- Basal_Viability ATP RKO IC50/EC50 (RKO; assay number 29): 1.0291 µM
- hp70S6K1 LANCE IC50/EC50 (hp70S6K1 (RPS6KB1); assay number 31): > 20 µM
- Basal_Viability ATP Colo 320 IC50/EC50 (Colo320; assay number 27): 7.4079 µM
- WntCondMedia_Alk Phos C2C12 IC50/EC50 ([2]; assay number 6): 1.509 µM
- hFLT3 LANCE IC50/EC50 (hFLT3; assay number 35): > 20 µM
- Basal_Viability ATP HCT116 IC50/EC50 (HCT116; assay number 25): 1.2335 µM
- Basal_Viability ATP HT-29 IC50/EC50 (HT-29; assay number 28): 7.591 µM
- Basal_Viability ATP SNU-C1 IC50/EC50 (SNU-C1; assay number 30): 1.718 µM
- VEGF_ADSC\ECFC Angio Hoechst NucArea IC50/EC50 [3]: 0.01274 µM
- Hela CellCycMod PI 2N IC50/EC50 (HeLa cells; assay number 14, 2N): > 10 µM
- Hela CellCycMod PI S Phase IC50/EC50 (HeLa cells; assay number 15, S phase): > 10 µM
- Hela CellCycMod PI 4N IC50/EC50 (HeLa cells; assay number 16, 4N): > 10 µM
- Hela CellCycMod PI MI IC50/EC50 (HeLa cells; assay number 17, MI): > 10 µM
- Hela CellCycMod PI Cell Number IC50/EC50 (HeLa cells; assay number 18, cell number): 0.0031 µM
- Basal_Viability ATP SW480 IC50/EC50 (SW480; assay number 24): 1.8306 µM
- hKDR LANCE IC50/EC50 (hKDR; assay number 32): > 20 µM
- GSK3b inh pretreated_Viability ATP HCT116 IC50/EC50 ([4]; assay number 26, GSK3b inhibitor pretreated): 0.001 µM
- hGSK3b LANCE IC50/EC50 (hGSK3b; assay number 34): > 20 µM
- VEGF_ADSC\ECFC Angio CD31 TubeArea IC50/EC50 [5]: 0.0044 µM
- Basal_Viability ATP DLD-1 IC50/EC50 (DLD-1; assay number 23): 1.6038 µM

Compound: CCCSc1ccc2nc(NC(=O)OC)[nH]c2c1 [NCGC00016876-12]
- IC50/EC50, hJAK2 LANCE (assay number 33) (hJAK2): > 20 µM
- IC50/EC50, WntCondMedia_bCatenin C2C12 (assay number 5) [1]: 1.2764 µM
- IC50/EC50, Basal_Viability ATP RKO (assay number 29) (RKO): 0.1653 µM
- IC50/EC50, hp70S6K1 LANCE (assay number 31) (hp70S6K1 (RPS6KB1)): > 20 µM
- IC50/EC50, Basal_Viability ATP Colo 320 (assay number 27) (Colo320): 0.502 µM
- IC50/EC50, WntCondMedia_Alk Phos C2C12 (assay number 6) [2]: 12.2685 µM
- IC50/EC50, hFLT3 LANCE (assay number 35) (hFLT3): > 20 µM
- IC50/EC50, Basal_Viability ATP HCT116 (assay number 25) (HCT116): 0.1118 µM
- IC50/EC50, Basal_Viability ATP HT-29 (assay number 28) (HT-29): > 20 µM
- IC50/EC50, Basal_Viability ATP SNU-C1 (assay number 30) (SNU-C1): > 20 µM
- IC50/EC50, VEGF_ADSC\ECFC Angio Hoechst NucArea (assay number 3) [3]: > 10 µM
- IC50/EC50, Hela CellCycMod PI 2N (assay number 14) (HeLa cells; 2N): 0.0656 µM
- IC50/EC50, Hela CellCycMod PI 4N (assay number 16) (HeLa cells; 4N): 0.0612 µM
- IC50/EC50, Hela CellCycMod PI Cell Number (assay number 18) (HeLa cells; Cell Number): 0.0377 µM
- IC50/EC50, Hela CellCycMod PI MI (assay number 17) (HeLa cells; MI): 0.0615 µM
- IC50/EC50, Hela CellCycMod PI S Phase (assay number 15) (HeLa cells; S Phase): > 10 µM
- IC50/EC50, Basal_Viability ATP SW480 (assay number 24) (SW480): > 20 µM
- IC50/EC50, hKDR LANCE (assay number 32) (hKDR): > 20 µM
- IC50/EC50, GSK3b inh pretreated_Viability ATP HCT116 (assay number 26) ([4]; GSK3b inh pretreated): 0.1579 µM
- IC50/EC50, hGSK3b LANCE (assay number 34) (hGSK3b): > 20 µM
- IC50/EC50, VEGF_ADSC\ECFC Angio CD31 TubeArea (assay number 2) [5]: 0.3554 µM
- IC50/EC50, Basal_Viability ATP DLD-1 (assay number 23) (DLD-1): 0.1085 µM
